Experimental data: BindingDB's records for doi:10.1021/np960678l (1997)

Target: T1, 5-hydroxytryptamine receptor 1A (Homo sapiens, UniProt P08908)
T1 sequence (P08908 whole entry): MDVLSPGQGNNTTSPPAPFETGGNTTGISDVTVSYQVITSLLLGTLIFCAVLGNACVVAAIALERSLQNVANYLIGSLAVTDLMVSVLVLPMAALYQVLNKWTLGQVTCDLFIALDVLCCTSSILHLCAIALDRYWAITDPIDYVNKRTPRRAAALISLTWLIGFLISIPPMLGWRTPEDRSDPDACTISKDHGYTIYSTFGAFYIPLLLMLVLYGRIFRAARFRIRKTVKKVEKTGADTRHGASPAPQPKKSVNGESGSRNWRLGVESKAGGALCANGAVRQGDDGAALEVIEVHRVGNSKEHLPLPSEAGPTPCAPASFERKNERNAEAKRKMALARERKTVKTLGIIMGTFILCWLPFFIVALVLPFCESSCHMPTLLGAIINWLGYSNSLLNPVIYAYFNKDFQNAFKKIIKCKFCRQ
Assay: Displacement of [3H]8-OH-DPAT from 5HT1A receptor by vacuum filtration

For COc1cc(-c2oc3cc(O)cc(=O)c-3c(O)c2O[C@@H]2O[C@H](CO)[C@H](O)[C@H](O)[C@H]2O)ccc1O [isohamnetin 3-O-galactoside], the Ki was greater than 100 µM.
